Experimental findings from patent publication US10730863B2, “Bridged bicyclic compounds as farnesoid X receptor modulators” (BRISTOL-MYERS SQUIBB COMPANY, priority 2017, dated 2020) are described below.

In general, EC50 refers to the midpoint of the concentration-response curve. A higher EC50 goes with lower potency in that assay.

Each structure is given as a SMILES string.

FXR, sequence (Q96RI1 262-486): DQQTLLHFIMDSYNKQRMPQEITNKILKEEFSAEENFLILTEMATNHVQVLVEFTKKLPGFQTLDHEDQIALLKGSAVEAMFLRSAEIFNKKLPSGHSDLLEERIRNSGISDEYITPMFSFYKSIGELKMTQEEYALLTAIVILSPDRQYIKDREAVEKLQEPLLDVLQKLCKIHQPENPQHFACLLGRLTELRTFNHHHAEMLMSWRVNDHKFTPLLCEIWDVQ

The assay concerns the target FXR (Homo sapiens (Human), UniProt Q96RI1). The experiment in a line: FXR EC50 (FXR agonist activity reported with each example). It counts as cell-based.
`CC(C)Oc1cc(C(=O)O)nc2ccc(OCC34CCC(/C=C/c5c(-c6c(Cl)cncc6Cl)noc5C5CC5)(CC3)CO4)cc12` [Example 501, (E)-6-((4-(2-(5-cyclopropyl-3-(3,5-dichloropyridin-4-yl)isoxazol-4-yl)vinyl)-2-oxabicyclo[2.2.2]octan-1-yl)methoxy)-4-isopropoxyquinoline-2-carboxylic acid] had an EC50 of 54 nM.
`O=C(O)c1cccc2nc(C34CCC(/C=C\c5c(-c6c(Cl)cccc6Cl)noc5C5CC5)(CC3)CC4)sc12` [Example 502, (Z)-2-(4-(2-(5-cyclopropyl-3-(2,6-dichlorophenyl)isoxazol-4-yl)vinyl)bicyclo[2.2.2]octan-1-yl)benzo[d]thiazole-7-carboxylic acid] returned an EC50 of 1500 nM.
As for `COc1cc(C(=O)N(C)C)nc2ccc(C#CC34CCC(OCc5c(-c6c(Cl)cncc6Cl)noc5C5CC5)(CC3)CC4)cc12` [Example 522, 6-((4-((5-cyclopropyl-3-(3,5-dichloropyridin-4-yl)isoxazol-4-yl)methoxy)bicyclo[2.2.2]octan-1-yl)ethynyl)-4-methoxy-N,N-dimethylquinoline-2-carboxamide], the EC50 came to 52 nM. Compared with the last molecule, the EC50 is about 29-fold lower.
Molecule `O=C(O)c1cc(-c2noc(C34CCC(OCc5c(-c6c(Cl)cncc6Cl)noc5C5CC5)(CC3)CC4)n2)cc(C(F)(F)F)n1` [Example 264, 4-(5-(4-((5-cyclopropyl-3-(3,5-dichloropyridin-4-yl)isoxazol-4-yl)methoxy)bicyclo[2.2.2]octan-1-yl)-1,2,4-oxadiazol-3-yl)-6-(trifluoromethyl)picolinic acid] registered a concentration for a half-maximal effect (EC50) of 180 nM.
The molecule `O=C(O)c1cccc(-n2cc(C34CCC(OCc5c(-c6c(Cl)cccc6Cl)noc5C5CC5)(CC3)CC4)nn2)c1` [Example 131, 3-(4-(4-((5-cyclopropyl-3-(2,6-dichlorophenyl)isoxazol-4-yl)methoxy)bicyclo[2.2.2]octan-1-yl)-1H-1,2,3-triazol-1-yl)benzoic acid] had a concentration giving a half-maximal response (EC50) of 460 nM.
Consider `COc1cc(OCC23CCC(/C=C/c4c(-c5c(Cl)cncc5Cl)noc4C4CC4)(CC2)CC3)cc(C(=O)O)c1` [Example 493, (E)-3-((4-(2-(5-cyclopropyl-3-(3,5-dichloropyridin-4-yl)isoxazol-4-yl)vinyl)bicyclo[2.2.2]octan-1-yl)methoxy)-5-methoxybenzoic acid], for which the EC50 was determined as 18 nM.
`O=C(O)c1cc(F)c2nc(C34CCC(OCc5c(-c6c(Cl)cncc6Cl)noc5C5CC5)(CC3)CC4)ccc2c1` [Example 369] gave a concentration for a half-maximal effect (EC50) of 41 nM.
The molecule `CN(Cc1ccccc1C(=O)O)C(=O)C12CCC(OCc3c(-c4c(Cl)cccc4Cl)noc3C3CC3)(CC1)CC2` [Example 144, 2-((4-((5-cyclopropyl-3-(2,6-dichlorophenyl)isoxazol-4-yl)methoxy)-N-methylbicyclo[2.2.2]octane-1-carboxamido)methyl)benzoic acid] gave an EC50 of 160 nM.
In the case of `O=C(O)c1cccc(-c2noc(C34CCC(/C=C/c5c(-c6c(Cl)cccc6Cl)noc5C5CC5)(CC3)CC4)n2)c1` [Example 159, (E)-3-(5-(4-(2-(5-cyclopropyl-3-(2,6-dichlorophenyl)isoxazol-4-yl)vinyl)bicycle[2.2.2]octan-1-yl)-1,2,4-oxadiazol-3-yl)benzoic acid], the EC50 came to 14 nM.
`O=C(O)c1cccc2nc(C34CCC(C=Cc5c(-c6ccccc6OC(F)(F)F)noc5C5CC5)(CC3)CC4)sc12` [Example 186] registered an EC50 of 67 nM. Against the preceding molecule, the EC50 is about 4.8-fold higher.
On to `O=C(O)c1csc(C23CCC(COCc4c(-c5c(Cl)cccc5Cl)noc4C4CC4)(CC2)CC3)n1` [Example 162, 2-(4-(((5-cyclopropyl-3-(2,6-dichlorophenyl)isoxazol-4-yl)methoxy)methyl)bicyclo[2.2.2]octan-1-yl)thiazole-4-carboxylic acid], for which the midpoint of the response, the EC50, lay at 1300 nM.
In the case of `O=C(O)c1cc(C(F)(F)F)c2cc(OCC34CCC(/C=C/c5c(-c6c(Cl)cncc6Cl)noc5C5CC5)(CC3)CC4)ccc2n1` [Example 452, (E)-6-((4-(2-(5-cyclopropyl-3-(3,5-dichloropyridin-4-yl)isoxazol-4-yl)vinyl)bicyclo[2.2.2]octan-1-yl)methoxy)-4-(trifluoromethyl)quinoline-2-carboxylic acid] it was 14 nM; in that of `COc1ccc(-c2noc(C34CCC(/C=C/c5c(-c6c(Cl)cncc6Cl)noc5C5CC5)(CC3)OC4)n2)cc1C(=O)O` [Example 496, (E)-5-(5-(1-(2-(5-cyclopropyl-3-(3,5-dichloropyridin-4-yl)isoxazol-4-yl)vinyl)-2-oxabicyclo[2.2.2]octan-4-yl)-1,2,4-oxadiazol-3-yl)-2-methoxybenzoic acid], 1000 nM; in that of `CC(C)Oc1ccc(-c2noc(C34CCC(OCc5c(-c6c(Cl)cncc6Cl)noc5C5CC5)(CC3)CC4)n2)cc1C(=O)O` [Example 256, 5-(5-(4-((5-cyclopropyl-3-(3,5-dichloropyridin-4-yl)isoxazol-4-yl)methoxy)bicyclo[2.2.2]octan-1-yl)-1,2,4-oxadiazol-3-yl)-2-isopropoxybenzoic acid], 260 nM.
For the molecule `O=C(O)c1cc(C(F)(F)F)c2nccc(C34CCC(OCc5c(-c6c(Cl)cncc6Cl)noc5C5CC5)(CC3)CC4)c2c1` [Example 372], the EC50 amounted to 570 nM.
In turn, `O=C(O)c1cc(OC(F)F)c2cc(OCC34CCC(OCc5c(-c6c(Cl)cncc6Cl)noc5C5CC5)(CC3)CO4)ccc2n1` [Example 471, 6-((4-((5-cyclopropyl-3-(3,5-dichloropyridin-4-yl)isoxazol-4-yl)methoxy)-2-oxabicyclo[2.2.2]octan-1-yl)methoxy)-4-(difluoromethoxy)quinoline-2-carboxylic acid] returned an EC50 of 200 nM.
In the case of `O=C(O)c1cc(-c2noc(C34CCC(OCc5c(-c6c(Cl)cncc6Cl)noc5C5CC5)(CC3)CC4)n2)cc(C(F)(F)F)c1` [Example 235, 3-(5-(4-((5-cyclopropyl-3-(3,5-dichloropyridin-4-yl)isoxazol-4-yl)methoxy)bicyclo[2.2.2]octan-1-yl)-1,2,4-oxadiazol-3-yl)-5-(trifluoromethyl)benzoic acid] it was 25 nM.
Take `COc1ccc(C(=O)O)cc1-c1noc(C23CCC(OCc4c(-c5c(Cl)cncc5Cl)noc4C4CC4)(CC2)CC3)n1` [Example 459, 3-(5-(4-((5-cyclopropyl-3-(3,5-dichloropyridin-4-yl)isoxazol-4-yl)methoxy)bicyclo[2.2.2]octan-1-yl)-1,2,4-oxadiazol-3-yl)-4-methoxybenzoic acid]: the EC50 was found to be 630 nM.
Regarding `O=C(O)c1ccc(OC2COC2)c2nc(C34CCC(OCc5c(-c6c(Cl)cncc6Cl)noc5C5CC5)(CC3)CC4)ccc12` [Example 406], it took 54 nM to reach a half-maximal effect (EC50).
The molecule `COc1cc(C(=O)O)ccc1OCC12CCC(/C=C/c3c(-c4c(Cl)cncc4Cl)noc3C3CC3)(CC1)CC2` [Example 450, (E)-4-((4-(2-(5-cyclopropyl-3-(3,5-dichloropyridin-4-yl)isoxazol-4-yl)vinyl)bicyclo[2.2.2]octan-1-yl)methoxy)-3-methoxybenzoic acid] displayed a concentration giving a half-maximal response (EC50) of 18 nM.
Regarding `CCCc1cc(C(=O)O)nc2c(F)cc(OCC34CCC(OCc5c(-c6c(Cl)cncc6Cl)noc5C5CC5)(CC3)CC4)cc12` [Example 309, 6-((4-((5-cyclopropyl-3-(3,5-dichloropyridin-4-yl)isoxazol-4-yl)methoxy)bicyclo[2.2.2]octan-1-yl)methoxy)-8-fluoro-4-propylquinoline-2-carboxylic acid], a half-maximal effect (EC50) was put at 13 nM.
As for `O=C(O)c1cccc(CC(O)C23CCC(OCc4c(-c5c(Cl)cccc5Cl)noc4C4CC4)(CC2)CC3)c1` (stereo not drawn) [Example 127, 3-(2-(4-((5-cyclopropyl-3-(2,6-dichlorophenyl)isoxazol-4-yl)methoxy)bicyclo[2.2.2]octan-1-yl)-2-hydroxyethyl)benzoic acid], the figure is 280 nM.
`O=C(O)c1cccc2nc(C34CCC(/C=C/c5c(-c6c(Cl)cncc6Cl)noc5C5CC5)(CC3)CC4)sc12` [Example 503, (E)-2-(4-(2-(5-cyclopropyl-3-(3,5-dichloropyridin-4-yl)isoxazol-4-yl)vinyl)bicyclo[2.2.2]octan-1-yl)benzo[d]thiazole-7-carboxylic acid]: a half-maximal response (EC50) required 31 nM.
Turning to `O=C(O)c1ccc(C23CCC(OCc4c(-c5c(Cl)cccc5Cl)noc4C4CC4)(CC2)CC3)nc1` [Example 138, 6-(4-((5-cyclopropyl-3-(2,6-dichlorophenyl)isoxazol-4-yl)methoxy)bicyclo[2.2.2]octan-1-yl)nicotinic acid], a half-maximal response (EC50) required 440 nM.
`CC(C)Oc1ccc(C(=O)O)c2ccc(C34CCC(OCc5c(-c6c(Cl)cncc6Cl)noc5C5CC5)(CC3)CC4)nc12` [Example 391, 2-(4-((5-cyclopropyl-3-(3,5-dichloropyridin-4-yl)isoxazol-4-yl)methoxy)bicyclo[2.2.2]octan-1-yl)-8-isopropoxyquinoline-5-carboxylic acid] returned an EC50 of 14 nM.
In the case of `O=C(O)c1ccc(-c2noc(C34CCC(/C=C/c5c(-c6c(Cl)cccc6Cl)noc5C5CC5)(CC3)CC4)n2)cc1` [Example 160], the EC50 turned out to be 51 nM. This EC50 lies about 3.6-fold higher than the previous one.
In turn, `O=C(O)c1ccc(-c2noc(C34CCC(COCc5c(-c6c(Cl)cccc6Cl)noc5C5CC5)(CC3)CC4)n2)cc1` [Example 152] gave an EC50 of 140 nM.
In turn, `O=C(O)c1cccc(-c2noc(C34CC(COCc5c(-c6c(Cl)cccc6Cl)noc5C5CC5)(C3)C4)n2)c1` [Example 514, 3-(5-(3-(((5-cyclopropyl-3-(2,6-dichlorophenyl)isoxazol-4-yl)methoxy)methyl)bicyclo[1.1.1]pentan-1-yl)-1,2,4-oxadiazol-3-yl)benzoic acid] gave an EC50 of 1700 nM.
On to `O=C(O)c1cc(OCC23CCC(/C=C/c4c(-c5c(Cl)cncc5Cl)noc4C4CC4)(CC2)CC3)cc(OC(F)F)c1` [Example 444, (E)-3-((4-(2-(5-cyclopropyl-3-(3,5-dichloropyridin-4-yl)isoxazol-4-yl)vinyl)bicyclo[2.2.2]octan-1-yl)methoxy)-5-(difluoromethoxy)benzoic acid], for which the EC50 amounted to 16 nM.
The molecule `CCOc1cc(OCC23CCC(OCc4c(-c5ccccc5C(F)(F)F)noc4C4CC4)(CC2)CC3)cnc1C(N)=O` [Example 299] had an EC50 of 2300 nM.
